Experimental data: article PMC10620772, “Design, synthesis, and biological evaluation of new pyrimidine-5-carbonitrile derivatives as novel anti-cancer, dual EGFR^WT/COX-2 inhibitors with docking studies” (RSC Advances, 2023)

What was measured:
Assay in all cases: NCI60 antitumor screening
Type in all cases: cell-based, human
CCRF-CEM = details: Homo sapiens; 10 μM single dose; CCRF-CEM (leukaemia); read-out: growth inhibition percent (GI%)
K-562 = details: for inhibition at 10 µM: Homo sapiens, 10 μM single dose, (leukaemia), read-out: growth inhibition percent (GI%)
MOLT-4 = details: Homo sapiens; 10 μM single dose; MOLT-4 (leukaemia); read-out: growth inhibition percent (GI%)
RPMI-8226 = details: Homo sapiens; 10 μM single dose; RPMI-8226 (leukaemia); read-out: growth inhibition percent (GI%)
A549/ATCC = details: Homo sapiens; 10 μM single dose; A549/ATCC (non-small cell lung cancer); read-out: growth inhibition percent (GI%)
EKVX = details: Homo sapiens; 10 μM single dose; EKVX (non-small cell lung cancer); read-out: growth inhibition percent (GI%)
HOP-62 = details: for inhibition at 10 µM: Homo sapiens, 10 μM single dose, HOP-62 (non-small cell lung cancer), read-out: growth inhibition percent (GI%)
HOP-92 = details: Homo sapiens; 10 μM single dose; HOP-92 (non-small cell lung cancer); read-out: growth inhibition percent (GI%)
NCI-H226 = details: for inhibition at 10 µM: Homo sapiens, 10 μM single dose, NCI-H226 (non-small cell lung cancer), read-out: growth inhibition percent (GI%)
NCI-H23 = details: Homo sapiens; 10 μM single dose; NCI-H23 (non-small cell lung cancer); read-out: growth inhibition percent (GI%)
NCI-H460 = details: Homo sapiens; 10 μM single dose; NCI-H460 (non-small cell lung cancer); read-out: growth inhibition percent (GI%)
NCI-H522 = details: Homo sapiens; 10 μM single dose; NCI-H522 (non-small cell lung cancer); read-out: growth inhibition percent (GI%)
HCC-2998 = details: Homo sapiens; 10 μM single dose; HCC-2998 (colon cancer); read-out: growth inhibition percent (GI%)
HCT-116 = details: Homo sapiens; 10 μM single dose; HCT-116 (colon cancer); read-out: growth inhibition percent (GI%)
HCT-15 = details: Homo sapiens; 10 μM single dose; HCT-15 (colon cancer); read-out: growth inhibition percent (GI%)
HT29 = details: Homo sapiens, HT-29; 10 μM single dose; HT29 (colon cancer); read-out: growth inhibition percent (GI%)
KM12 = details: Homo sapiens; 10 μM single dose; KM12 (colon cancer); read-out: growth inhibition percent (GI%)
SW-620 = details: Homo sapiens; 10 μM single dose; SW-620 (colon cancer); read-out: growth inhibition percent (GI%)
SF-295 = details: Homo sapiens; 10 μM single dose; SF-295 (CNS cancer); read-out: growth inhibition percent (GI%)
SNB-75 = details: for inhibition at 10 µM: Homo sapiens, 10 μM single dose, SNB-75 (CNS cancer), read-out: growth inhibition percent (GI%)
U251 = details: Homo sapiens, U-251; 10 μM single dose; U251 (CNS cancer); read-out: growth inhibition percent (GI%)
MALME-3M = details: Homo sapiens; 10 μM single dose; MALME-3M (melanoma); read-out: growth inhibition percent (GI%)
M14 = details: Homo sapiens; 10 μM single dose; M14 (melanoma); read-out: growth inhibition percent (GI%)
MDA-MB-435 = details: Homo sapiens; 10 μM single dose; MDA-MB-435 (melanoma); read-out: growth inhibition percent (GI%)
SK-MEL-2 = details: Homo sapiens; 10 μM single dose; SK-MEL-2 (melanoma); read-out: growth inhibition percent (GI%)
UACC-62 = details: Homo sapiens; 10 μM single dose; UACC-62 (melanoma); read-out: growth inhibition percent (GI%)
IGROV1 = details: Homo sapiens, IGROV-1; 10 μM single dose; IGROV1 (ovarian cancer); read-out: growth inhibition percent (GI%)
OVCAR-3 = details: Homo sapiens; 10 μM single dose; OVCAR-3 (ovarian cancer); read-out: growth inhibition percent (GI%)
OVCAR-4 = details: for inhibition at 10 µM: Homo sapiens, 10 μM single dose, OVCAR-4 (ovarian cancer), read-out: growth inhibition percent (GI%)
OVCAR-5 = details: Homo sapiens; 10 μM single dose; OVCAR-5 (ovarian cancer); read-out: growth inhibition percent (GI%)
786–0 = details: for inhibition at 10 µM: Homo sapiens, 10 μM single dose, 786–0 (renal cancer), read-out: growth inhibition percent (GI%)
SN12C = details: Homo sapiens; 10 μM single dose; SN12C (renal cancer); read-out: growth inhibition percent (GI%)
UO-31 = details: Homo sapiens; 10 μM single dose; UO-31 (renal cancer); read-out: growth inhibition percent (GI%)
PC-3 = details: Homo sapiens; 10 μM single dose; PC-3 (prostate cancer); read-out: growth inhibition percent (GI%)
DU-145 = details: Homo sapiens, DU-145; read-out: growth inhibition percent (GI%)
HS 578T = details: for inhibition at 10 µM: Homo sapiens, 10 μM single dose, HS 578T (breast cancer), read-out: growth inhibition percent (GI%)
BT-549 = details: Homo sapiens; 10 μM single dose; BT-549 (breast cancer); read-out: growth inhibition percent (GI%)
T-47D = details: Homo sapiens, T47D; 10 μM single dose; T-47D (breast cancer); read-out: growth inhibition percent (GI%)
MDA-MB-468 = details: Homo sapiens; 10 μM single dose; MDA-MB-468 (breast cancer); read-out: growth inhibition percent (GI%)

CN1CCN(c2nc(SCc3ccc(F)cc3)nc(-c3ccc(F)cc3)c2C#N)CC1 [4j, 2-((4-Fluorobenzyl)thio)-4-(4-fluorophenyl)-6-(4-methylpiperazin-1-yl)pyrimidine-5-carbonitrile]
inhibition at 10 µM (CCRF-CEM): < 10%
GI% (K-562; 10 μM one-dose, Table 1): — (GI value > 70%)
inhibition at 10 µM (K-562): 18.5%
inhibition at 10 µM (MOLT-4): < 10%
inhibition at 10 µM (RPMI-8226): 15%
inhibition at 10 µM (A549/ATCC): 27.7%
inhibition at 10 µM (EKVX): 18.4%
GI% (HOP-62; 10 μM one-dose, Table 1): — (GI value > 70%)
inhibition at 10 µM (HOP-62): 64.4%
inhibition at 10 µM (HOP-92): 66.2%
GI% (NCI-H226; 10 μM one-dose, Table 1): — (GI value > 70%)
inhibition at 10 µM (NCI-H226): 37.8%
inhibition at 10 µM (NCI-H23): 22.2%
inhibition at 10 µM (NCI-H460): < 10%
inhibition at 10 µM (NCI-H522): 23.6%
inhibition at 10 µM (HCC-2998): < 10%
inhibition at 10 µM (HCT-116): 25.3%
inhibition at 10 µM (HCT-15): < 10%
inhibition at 10 µM (HT29): < 10%
inhibition at 10 µM (KM12): < 10%
inhibition at 10 µM (SW-620): < 10%
inhibition at 10 µM (SF-295): 56.8%
GI% (SNB-75; 10 μM one-dose, Table 1): 74.91%
inhibition at 10 µM (SNB-75): 74.9%
inhibition at 10 µM (U251): 26.2%
inhibition at 10 µM (MALME-3M): 39.5%
inhibition at 10 µM (M14): 10.4%
inhibition at 10 µM (MDA-MB-435): < 10%
inhibition at 10 µM (SK-MEL-2): < 10%
inhibition at 10 µM (UACC-62): 22.5%
inhibition at 10 µM (IGROV1): 16.9%
inhibition at 10 µM (OVCAR-3): 16.1%
GI% (OVCAR-4; 10 μM one-dose, Table 1): — (GI value > 70%)
inhibition at 10 µM (OVCAR-4): 24.1%
inhibition at 10 µM (OVCAR-5): 17.4%
GI% (786–0; 10 μM one-dose, Table 1): — (GI value > 70%)
inhibition at 10 µM (786–0): 67.1%
inhibition at 10 µM (SN12C): 20.5%
inhibition at 10 µM (UO-31): 30.1%
inhibition at 10 µM (PC-3): 32.3%
inhibition at 10 µM (DU-145): < 10%
GI% (HS 578T; 10 μM one-dose, Table 1): — (GI value > 70%)
inhibition at 10 µM (HS 578T): 60.4%
inhibition at 10 µM (BT-549): 32%
inhibition at 10 µM (T-47D): 18.3%
inhibition at 10 µM (MDA-MB-468): 23.6%

N#Cc1c(-c2ccc(F)cc2)nc(SCc2ccc([N+](=O)[O-])cc2)nc1N1CCNCC1 [4g, 4-(4-Fluorophenyl)-2-((4-nitrobenzyl)thio)-6-(piperazin-1-yl) pyrimidine-5-carbonitrile]
inhibition at 10 µM (CCRF-CEM): < 10%
inhibition at 10 µM (K-562): < 10%
inhibition at 10 µM (MOLT-4): < 10%
inhibition at 10 µM (RPMI-8226): < 10%
inhibition at 10 µM (A549/ATCC): < 10%
inhibition at 10 µM (EKVX): < 10%
inhibition at 10 µM (HOP-62): < 10%
inhibition at 10 µM (HOP-92): < 10%
inhibition at 10 µM (NCI-H226): < 10%
inhibition at 10 µM (NCI-H23): < 10%
inhibition at 10 µM (NCI-H460): < 10%
inhibition at 10 µM (NCI-H522): < 10%
inhibition at 10 µM (HCC-2998): < 10%
inhibition at 10 µM (HCT-116): < 10%
inhibition at 10 µM (HCT-15): < 10%
inhibition at 10 µM (HT29): < 10%
inhibition at 10 µM (KM12): < 10%
inhibition at 10 µM (SW-620): < 10%
inhibition at 10 µM (SF-295): < 10%
inhibition at 10 µM (SNB-75): 15.9%
inhibition at 10 µM (U251): < 10%
inhibition at 10 µM (MALME-3M): < 10%
inhibition at 10 µM (M14): < 10%
inhibition at 10 µM (MDA-MB-435): < 10%
inhibition at 10 µM (SK-MEL-2): < 10%
inhibition at 10 µM (UACC-62): < 10%
inhibition at 10 µM (IGROV1): < 10%
inhibition at 10 µM (OVCAR-3): < 10%
inhibition at 10 µM (OVCAR-4): < 10%
inhibition at 10 µM (OVCAR-5): < 10%
inhibition at 10 µM (786–0): < 10%
inhibition at 10 µM (SN12C): < 10%
inhibition at 10 µM (UO-31): 11.9%
inhibition at 10 µM (PC-3): < 10%
inhibition at 10 µM (DU-145): < 10%
inhibition at 10 µM (HS 578T): < 10%
inhibition at 10 µM (BT-549): < 10%
inhibition at 10 µM (T-47D): < 10%
inhibition at 10 µM (MDA-MB-468): < 10%

N#Cc1c(-c2ccc(F)cc2)nc(SCc2ccccc2)nc1N1CCN(c2ccccc2)CC1 [4m, 2-(Benzylthio)-4-(4-fluorophenyl)-6-(4-phenylpiperazin-1-yl) pyrimidine-5-carbonitrile]
inhibition at 10 µM (CCRF-CEM): 11.1%
inhibition at 10 µM (K-562): 10.6%
inhibition at 10 µM (MOLT-4): < 10%
inhibition at 10 µM (RPMI-8226): 14.2%
inhibition at 10 µM (A549/ATCC): < 10%
inhibition at 10 µM (EKVX): < 10%
inhibition at 10 µM (HOP-62): < 10%
inhibition at 10 µM (HOP-92): < 10%
inhibition at 10 µM (NCI-H226): < 10%
inhibition at 10 µM (NCI-H23): < 10%
inhibition at 10 µM (NCI-H460): < 10%
inhibition at 10 µM (NCI-H522): < 10%
inhibition at 10 µM (HCC-2998): < 10%
inhibition at 10 µM (HCT-116): < 10%
inhibition at 10 µM (HCT-15): 10.8%
inhibition at 10 µM (HT29): < 10%
inhibition at 10 µM (KM12): < 10%
inhibition at 10 µM (SW-620): < 10%
inhibition at 10 µM (SF-295): < 10%
inhibition at 10 µM (SNB-75): < 10%
inhibition at 10 µM (U251): < 10%
inhibition at 10 µM (MALME-3M): < 10%
inhibition at 10 µM (M14): < 10%
inhibition at 10 µM (MDA-MB-435): < 10%
inhibition at 10 µM (SK-MEL-2): < 10%
inhibition at 10 µM (UACC-62): 16.2%
inhibition at 10 µM (IGROV1): < 10%
inhibition at 10 µM (OVCAR-3): < 10%
inhibition at 10 µM (OVCAR-4): < 10%
inhibition at 10 µM (OVCAR-5): < 10%
inhibition at 10 µM (786–0): < 10%
inhibition at 10 µM (SN12C): < 10%
inhibition at 10 µM (UO-31): < 10%
inhibition at 10 µM (PC-3): < 10%
inhibition at 10 µM (DU-145): < 10%
inhibition at 10 µM (HS 578T): < 10%
inhibition at 10 µM (BT-549): < 10%
inhibition at 10 µM (T-47D): 15.1%
inhibition at 10 µM (MDA-MB-468): < 10%
